In patent US10548894B2, “Combination therapy” (Array BioPharma Inc., priority 2013, dated 2020):
Where two headings read alike, the source gives them in different places.

Columns and labels:
Type in all cases: cell-based
[1] = system: SK-MEL-5; assay: xCELLigence real-time impedance growth assay; conditions: Formula (I) 100 nM, Compound H 1 uM
Description: (§1) Shown is the growth in real time of the (Top A) COLO 741 and (Bottom B) SK-MEL-5 cell lines as measured using the xCELLigence impedance-based cell analyzer as discussed in Example 5. Where indicated FGF2 and Compound H were supplemented to the media at concentrations of 100 ng/ml, and 1 uM, respectively. The Compound of Formula (I) was used at 500 nM in (A) and 100 nM (B).
(§2) For CellTiter-Glo™ assays, cells were dispensed into tissue culture treated 96-well plates (Costar, catalog number 3904) with a final volume of 80 μL of medium and at density of 3000 cells per well. 12 to 24 hrs after plating, 20 μL of each compound dilution series were transferred to plates containing the cells, resulting in compound concentration ranges of 2700 nM to 3.7 nM by 3-fold dilutions and a final DMSO concentration of 0.16%. The total volume in each well was […]. Plates were incubated for 72 hrs and the effects of compounds on cell proliferation was determined using the CellTiter-Glo™ Luminescent Cell Viability Assay (CTG, Promega) and a Victor™ X4 plate reader (Perkin Elmer). For real-time growth assays cells were seeded into xCELLigence E-plates (Roche catalogue number 05232368001) at a density of 4000 cells per well in a total of 90 μl of media and 24 hrs after plating, 11 μl of media with or without compound was added to the wells. 2-4 replicate wells were plated for all cell lines and treatment groups with the exception of LGX818+FGF2 treated COLO 741 cells (N=1). Where indicated final concentrations of compounds and growth factor were 1 uM for Compound H, 100 ng/ml for FGF2, and either 100 nM (SK-MEL-5) or 500 nM (COLO 741) for the Compound of Formula (I). Cells were continuously monitored every two hours for seven days with the xCELLigence real-time impedance based cell analyzer. Impedance was measured using the electrodes on the E-plates, with increasing surface area coverage of cells creating greater electrode impedance. […] In all cases cell index values were normalized to a timepoint immediately following the addition of compound.
(§3) To determine whether rescue of BRAFV600E melanoma cell lines by FGF2 was dependent on FGFR signaling, we examined whether the selective FGFR inhibitor Compound H could prevent FGF2-mediated rescue. Two cell lines which were rescued to varying degrees by FGF2 (COLO 741, and SK-MEL-5, Table 8-1) were cultured in media containing the Compound of Formula (I) and FGF2 either in the presence or absence of Compound H and growth measured in real time.

[2] = system: COLO 741; assay: xCELLigence real-time impedance growth assay; conditions: Formula (I) 500 nM, Compound H 1 uM
Description: as §1, §2, §3

[3] = system: SK-MEL-24; assay: CellTiter-Glo proliferation assay 72 hrs, with or without FGF2; conditions: Homo sapiens
Description: (§4) All cell lines were purchased from ATTC (SK-MEL-5, SK-MEL-24, UACC-62, COLO 741, COLO-800, WM-266-4, Colo205, LS411N, SW 1417), ECACC (MDST8), DSMZ (CL-34) and NCI (LOX IMVI). […] Cell lines were cultured in 37° C. and 5% CO2 incubator and expanded in T-75 flasks. In all cases cells were thawed from frozen stocks, expanded through passage using 1:3 dilutions, counted and assessed for viability using a ViCell counter (Beckman-Coulter), prior to plating in 96-well or 6-well plates. To split and expand cell lines, cells were dislodged from flasks using 0.25% Trypsin-EDTA (GIBCO, Catalog number 25200). All cell lines were determined to be free of mycoplasma contamination as determined by a PCR detection methodology performed at Idexx Radii (Columbia, Mo., USA) and correctly identified by detection of a panel of SNPs.
(§5) The Compound of Formula (I) and Compound H dissolved in 100% DMSO (Cellgro, catalog number 25-290-CQC) at concentrations of 10 mM and stored at −20° C. until use. Compounds were arrayed in 2 ml deep 96-well plates (Greiner bio-one, catalog number 780271) serially diluted 3-fold seven times yielding concentration ranges from 22 nM to 16200 nM. Recombinant Human FGF basic was purchased from R&D system (Catalog number 233-FB), and reconstituted at 50 μg/ml in sterile PBS. It was used at a fixed concentration 100 ng/ml in all experiments.
as §2
(§6) To determine whether FGFRs can rescue a subset of BRAFV600E mutant melanoma cell lines treated with the Compound of Formula (I), its anti-proliferative effects were examined in eleven T1799 mutant BRAF cell lines either in the presence or absence of the FGFR-activating ligand FGF2. […] Thus, the presence of FGF2 is able to rescue a set of BRAFV600E melanoma-derived cell lines from the anti-proliferative effects of the B-Raf inhibitor of Formula (I). Furthermore, similar effects are also observed in BRAFV600E mutant cell lines derived from CRC tumors.
(§7) Mutant (mut) and wildtype (wt) status was determined from published data. […] PTEN mut designations represent a summary call based on mutation, gene copy number, and mRNA expression information for the PTEN gene.

[4] = system: WM-266-4; assay: as above; conditions: Homo sapiens, WM-266-4 (V600D)
Description: as §4, §5, §2, §6, §7

[5] = system: CL-34; assay: as above
Description: as §4, §5, §2, §6, §7

[6] = system: LS411N; assay: as above; conditions: Homo sapiens, LS-411N
Description: as §4, §5, §2, §6, §7

[7] = system: COLO 205; assay: as above; conditions: Homo sapiens
Description: as §4, §5, §2, §6, §7

[8] = system: UACC-62; assay: as above; conditions: Homo sapiens
Description: as §4, §5, §2, §6, §7

[9] = system: COLO 741; assay: as above; conditions: Homo sapiens
Description: as §4, §5, §2, §6, §7

[10] = with 100 ng/ml FGF2, read-out: LGX818 + FGF2 IC50
[11] = without FGF2, read-out: LGX818 IC50

COC(=O)N[C@@H](C)CNc1nccc(-c2cn(C(C)C)nc2-c2cc(Cl)cc(NS(C)(=O)=O)c2F)n1 [Compound of Formula (I)]
growth in real time (cell index) ([1]; SK-MEL-5, FGF2 100 ng/ml): growth suppression was abrogated | growth in real time (cell index) ([1]; SK-MEL-5, absence of FGF2): suppressed the growth | growth in real time (cell index) ([2]; COLO 741, FGF2 100 ng/ml): growth suppression was abrogated | growth in real time (cell index) ([2]; COLO 741, absence of FGF2): suppressed the growth | IC50 ([3]; SK-MEL-24, with 100 ng/ml FGF2, read-out: LGX818 + FGF2 IC50): 369 nM | IC50 ([3]; SK-MEL-24, without FGF2, read-out: LGX818 IC50): 470 nM | IC50 [4, 10]: 4 nM | IC50 [4, 11]: 3 nM | IC50 ([5]; CL-34, without FGF2, read-out: LGX818 IC50): 38 nM | IC50 ([5]; read-out: LGX818 + FGF2 IC50): 730 nM | IC50 [6, 10]: ≥ 9230 nM | IC50 [6, 11]: 185 nM | IC50 ([7]; Colo 205, with 100 ng/ml FGF2, read-out: LGX818 + FGF2 IC50): 5 nM | IC50 ([7]; Colo 205, without FGF2, read-out: LGX818 IC50): 4 nM | IC50 ([8]; UACC-62, with 100 ng/ml FGF2, read-out: LGX818 + FGF2 IC50): 4 nM | IC50 ([8]; UACC-62, without FGF2, read-out: LGX818 IC50): 2 nM | IC50 ([9]; COLO 741, with 100 ng/ml FGF2, read-out: LGX818 + FGF2 IC50): 2650 nM | IC50 ([9]; COLO 741, without FGF2, read-out: LGX818 IC50): 53 nM
